A short description of data set [1]: First-in-human study, safety and tolerability in healthy volunteers. In kind it is in vivo. As to conditions: healthy subjects. As to the method:
(§1) A first-in-human (FIH) study was conducted to assess the safety and tolerability, pharmacokinetics (PK) and pharmacodynamics (PD) of single and multiple doses of compound of Formula (I) as twice daily (bid) oral administration in healthy volunteers, to support further clinical development of compound of Formula (I) in autoimmune diseases. This study also explored the effect of food intake.
(§2) First-in-human study in healthy volunteers (HVs) included the following: • Part A was a randomized, subject-blinded, placebo-controlled, single ascending dose (SAD) study with 10 cohorts. Each cohort received in an ascending order a 1 mg, 3 mg, 10 mg, 20 mg, 40 mg, 80 mg, 160 mg, 320 mg, 640 mg or 1000 mg single dose of compound of Formula (I). • Part B was a randomized, subject-blinded, placebo-controlled, multiple ascending dose (MAD) study with 5 cohorts. Each cohort received in an ascending order a 25 mg, 50 mg, 100 mg, 200 mg or 400 mg dose of compound of Formula (I) b.i.d. for 14 days. • Part C was a randomized, open-label, two-sequence, two-period crossover study with a 200 mg dose of compound of Formula (I) administered each underfed or fasted condition, for the food effect evaluation.

Data set [2] in a line: First-in-human study, pharmacokinetics in healthy volunteers (plasma concentration; SAD, MAD, food effect). As to conditions: for increase of exposure (plasma concentration) with dose: healthy volunteers. Type of data set: in vivo. As to the method: as §1, §2
In the next data set the target is T1, TLR8 (Homo sapiens, UniProt Q9NR97).
T1 construct: endogenous in cells; host or cells: monocytes in whole blood of healthy human subjects (SAD and MAD cohorts)
T1 sequence (Q9NR97 27-1041): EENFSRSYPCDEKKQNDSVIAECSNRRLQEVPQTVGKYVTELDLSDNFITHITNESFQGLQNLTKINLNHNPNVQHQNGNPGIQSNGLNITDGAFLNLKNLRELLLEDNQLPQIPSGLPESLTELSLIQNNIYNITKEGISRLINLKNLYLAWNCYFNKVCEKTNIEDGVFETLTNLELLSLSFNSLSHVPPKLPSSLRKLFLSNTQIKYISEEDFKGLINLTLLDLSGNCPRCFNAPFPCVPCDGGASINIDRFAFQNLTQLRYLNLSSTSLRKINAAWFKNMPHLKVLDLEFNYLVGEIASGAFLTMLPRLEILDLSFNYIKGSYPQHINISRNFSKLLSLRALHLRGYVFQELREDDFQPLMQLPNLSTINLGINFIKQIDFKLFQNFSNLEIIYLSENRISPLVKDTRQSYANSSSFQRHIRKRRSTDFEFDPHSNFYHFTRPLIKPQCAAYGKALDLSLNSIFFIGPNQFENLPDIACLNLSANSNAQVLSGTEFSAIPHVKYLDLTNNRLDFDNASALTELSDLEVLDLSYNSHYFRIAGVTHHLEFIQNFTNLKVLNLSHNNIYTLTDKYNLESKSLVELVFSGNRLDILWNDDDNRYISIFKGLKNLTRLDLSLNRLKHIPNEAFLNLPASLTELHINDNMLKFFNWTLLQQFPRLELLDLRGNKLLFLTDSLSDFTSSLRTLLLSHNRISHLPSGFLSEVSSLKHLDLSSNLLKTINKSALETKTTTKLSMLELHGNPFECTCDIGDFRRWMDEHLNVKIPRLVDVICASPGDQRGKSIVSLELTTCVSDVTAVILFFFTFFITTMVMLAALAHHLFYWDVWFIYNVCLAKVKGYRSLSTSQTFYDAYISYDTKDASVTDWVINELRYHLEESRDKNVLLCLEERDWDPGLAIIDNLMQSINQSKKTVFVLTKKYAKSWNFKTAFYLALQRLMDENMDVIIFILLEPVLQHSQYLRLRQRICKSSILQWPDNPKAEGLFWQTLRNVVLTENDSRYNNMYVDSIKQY
Nature of the data set: Ex-vivo stimulation of whole blood from SAD and MAD cohorts with a TLR7/8 agonist, monocyte TNF production. Type of data set: cell-based. The text has this: (§3) CD69 and TNF are biomarkers intended to inform the pharmacodynamic (PD) effect of compound of Formula (I). Whole blood samples from the SAD and MAD cohorts were ex-vivo stimulated with a TLR7/8 agonist to increase levels of CD69 and TNF.

Another data set deals with T2, TLR7 (Homo sapiens, UniProt Q9NYK1).
T2 construct: endogenous in cells; host or cells: B cells in whole blood of healthy human subjects (SAD and MAD cohorts)
T2 sequence (Q9NYK1 27-1049): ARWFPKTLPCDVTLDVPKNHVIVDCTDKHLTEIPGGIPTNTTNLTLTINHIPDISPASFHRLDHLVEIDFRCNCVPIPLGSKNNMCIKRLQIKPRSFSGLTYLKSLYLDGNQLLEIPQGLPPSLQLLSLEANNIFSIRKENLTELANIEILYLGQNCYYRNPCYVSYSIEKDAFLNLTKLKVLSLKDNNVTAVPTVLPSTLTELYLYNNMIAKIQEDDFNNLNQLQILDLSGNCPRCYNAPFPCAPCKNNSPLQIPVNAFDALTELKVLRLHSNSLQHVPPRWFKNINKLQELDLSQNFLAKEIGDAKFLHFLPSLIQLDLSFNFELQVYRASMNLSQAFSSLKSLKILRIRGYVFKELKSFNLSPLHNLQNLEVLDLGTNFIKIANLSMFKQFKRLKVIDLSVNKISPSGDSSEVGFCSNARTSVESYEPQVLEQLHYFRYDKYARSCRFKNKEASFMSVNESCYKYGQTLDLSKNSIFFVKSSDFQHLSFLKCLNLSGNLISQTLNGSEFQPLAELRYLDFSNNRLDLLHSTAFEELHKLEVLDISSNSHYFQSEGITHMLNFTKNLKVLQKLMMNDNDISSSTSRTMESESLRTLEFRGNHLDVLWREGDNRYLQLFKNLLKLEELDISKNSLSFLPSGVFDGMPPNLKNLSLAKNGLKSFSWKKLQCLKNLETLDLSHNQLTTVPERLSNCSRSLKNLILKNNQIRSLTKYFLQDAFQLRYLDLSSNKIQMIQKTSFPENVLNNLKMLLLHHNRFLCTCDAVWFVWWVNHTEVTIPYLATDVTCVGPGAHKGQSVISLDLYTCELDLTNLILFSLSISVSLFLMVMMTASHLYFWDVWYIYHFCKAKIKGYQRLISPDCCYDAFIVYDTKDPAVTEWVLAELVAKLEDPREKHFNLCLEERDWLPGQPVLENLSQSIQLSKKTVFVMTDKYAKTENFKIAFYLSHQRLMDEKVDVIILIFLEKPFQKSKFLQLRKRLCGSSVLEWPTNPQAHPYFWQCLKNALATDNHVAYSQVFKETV
Nature of the data set: Ex-vivo stimulation of whole blood from SAD and MAD cohorts with a TLR7/8 agonist, B cell activation (CD69). Type of data set: cell-based.
Source text: as §3

For a further data set, the system named is TLR7 and TLR8. Nature of the data set: Selectivity for TLR7 and TLR8 over other TLRs and the IL-1 receptor on human PBMCs. In kind it is cell-based.
Setting [3] is: 200 mg b.i.d. for 14 days, FIH study.
Where [4] appears, read: ex-vivo stimulated whole blood, across the dose range (SAD and MAD).

“Also recorded” adds a separate entry of the source.

As for `Cc1cc(N2CCc3c(c(C)nn3CC34CCC(NC(=O)[C@@H]5COCCN5)(CC3)CC4)C2)c2cnn(C)c2n1` [compound of Formula (I), (S)-N-(4-((5-(1,6-dimethyl-1H-pyrazolo[3,4-b]pyridin-4-yl)-3-methyl-4,5,6,7-tetrahydro-1H-pyrazolo[4,3-c]pyridin-1-yl)methyl)bicyclo[2.2.2]octan-1-yl)morpholine-3-carboxamide], the safety and tolerability entry in data set [1] (multiple administrations of up to 400 mg b.i.d. for 14 days) was “safe and well tolerated; also recorded: safe and well-tolerated”; in data set [1] (single oral administration of up to 1000 mg) it was “safe and well tolerated; also recorded: safe and well-tolerated”. Moreover, the “Cmax timing under fed condition” value in data set [2] (200 mg dose, fed condition, FIG. 3) is “slightly delayed Cmax”. Also, the “food effect on exposure” value in data set [2] (200 mg dose, fed vs fasted crossover, FIG. 3) was “No relevant food effect”. In addition, the “increase of exposure (plasma concentration) with dose” value in data set [2] (multiple ascending dose b.i.d. for 14 days, FIG. 2) is “dose-proportional at steady state for the lower doses”; in data set [2] (single ascending dose, oral, FIG. 1) it was “dose-proportional for the higher doses”. Moreover, the half-life in data set [2] (plasma, oral, human, FIH study, maximum value, read-out: terminal half-life) was at most 14.4 h. Further, at TLR8 (setting [3]), the TLR8 pathway inhibition entry is “full pathway inhibition”. Moreover, the “activation of human monocytes to produce TNF following TLR8 stimulation” value on TLR8 (setting [4]) is listed as “inhibited activation of human monocytes to produce TNF”. Further, the TLR7 pathway inhibition result on TLR7 (setting [3]) was “full pathway inhibition”. For the same molecule, at TLR7 (setting [4]), the “B cell activation (upregulation of CD69) following TLR7 stimulation” value is “inhibited B cell activation”. For the same molecule, the “selectivity for TLR7 and TLR8 over other TLRs and the IL-1 receptor” value in the data set on TLR7 and TLR8 is “highly selective”.

Usually half-life stands for how long it takes for the measured level to halve.
